From PMC12668308, “A Novel Antimalarial Agent that Inhibits Protein Synthesis in Plasmodium falciparum” (Angewandte Chemie (International Ed. in English), 2025) come the findings set out here.

For orientation: IC50 means the point on the concentration scale where inhibition reaches its midpoint.

The subject of experiment [1] is 3D7^WT. Put plainly: [3H]-hypoxanthine incorporation assay. The following applies: Plasmodium falciparum, 3D7; 72-h assay; mean±s.d.; read-out: 3D7^WT IC50. Format: cell-based. As for the experimental part:
^[a] 72-h [^3H] hypoxanthhine incorporation assay; Data is expressed as mean±s.d.. The assay was performed in three independent biological experiments, each in biological duplicates.
(§1) P. falciparum asexual blood stage parasites were cultured in human red blood cells (RBC, Blutspende SRK, Zurich) at a hematocrit of 5% in RPMI 1640 medium. The RPMI 1640 medium (ThermoFisher Scientific #51800−043) was supplemented with the following: 24 mM NaHCO3 (pH 7.3, Sigma-Aldrich #31437−500G-R), 25 mM Hepes (Sigma-Aldrich #H4034−500G), 0.36 mM hypoxanthine (Sigma-Aldrich # H9377−25G), 100 µg mL^-1 neomycin (Sigma-Aldrich #N6386−100G) and 0.5% Albumax II (Thermo Fisher #11021−045). Additionally, 2 mM choline chloride (279 mg/L, Sigma-Aldrich #C7527−100G) was added to the culture to block the induction of sexual commitment as described. ^[31^] The RPMI 1640 medium and components were dissolved in water (Milli-Q purified), stirred for at least 3 h, and then sterile filtered (0.22 μm pore size) with a bottle top filter (Corning # 431118). Parasite cultures were maintained in an atmosphere of 3% O2, 4% CO2, and 93% N2 in air-tight chambers at 37 °C. The [^3H]-hypoxanthine incorporation assay was used to test compound activity in the specific parasite lines as described.^[32^] Briefly, compounds were dissolved in DMSO (10 mM) and diluted in a hypoxanthine-free culture medium. A limiting dilution was performed over a 64-fold range (6-step twofold dilution) in a 96-well plate in duplicates. For every starting concentration, a limiting dilution was performed over a 64-fold range (6-step twofold dilution) in a 96-well plate in two biological duplicates. Parasites were added at 100 µL to each well containing the compound to obtain a final parasitemia of 0.3% and haematocrit of 1.25%. The plates were incubated for 48 h before 0.25 µCi of [^3H]-hypoxanthine was added per well for an additional 24 h. Parasites were harvested on a glass-fiber filter with a Microbeta FilterMate cell harvester (Perkin Elmer, Waltham, USA) and radioactivity was counted using a MicroBeta2 liquid scintillation counter (Perkin Elmer, Waltham, US). The results were recorded, processed by subtraction of the mean background signal obtained from the uninfected RBC controls and expressed as percentage of untreated controls. The fifty percent inhibitory concentration (IC50) was calculated by using nonlinear, four parameter (variable slope) curve fitting as described ^[33^] after importing into GraphPad Prism (version 8.3.0).

In experiment [2] the test system is Dd2b2^pfmdr1 K1065N. Format: cell-based, Plasmodium falciparum. The following applies: Dd2b2^pfmdr1 K1065N vs Dd2b2^WT. Here is the method: ^[a] 72-h [^3H] hypoxanthhine incorporation assay; Data is expressed as mean±s.d. The assay was performed in three independent biological experiments, each in biological duplicates
as §1

The target in experiment [3] is Aquaglyceroporin (W7K5E1) (Plasmodium falciparum, UniProt Q8II36). Put plainly: iSPP profiling, P. falciparum lysate. Format: binding. The following applies: 100 µM compound 34. Here is the method:
(§2) P. falciparum NF54 lysates were extracted as described in ^[26^] . The parasite asynchronous culture was extracted once 3-5% parasitemia was reached. Saponin lysis was done as described in 2.2.10. Once the parasite pellet was obtained, 2.5 volumes of ice-cold lysis buffer (50 mM Tris/HCl pH 7.5 (Avantor), 5% glycerol (Sigma-Aldrich), 150 mM NaCl (Carl Roth), 1.5 mM MgCl2 (Sigma-Aldrich), 1 mM DTT (Carl Roth), 0.8% IGEPAL CA-630 (Sigma-Aldrich), 1X Halt Protease and Phosphatase Inhibitor-Cocktails EDTA-free (Thermo Fisher Scientific)) was added to the parasite pellet. The lysate solution was subjected to three cycles of flash freeze-thaw with liquid nitrogen and ddH2O at RT. The lysates were centrifuged at 20,000 g for 20 minutes at 4 °C. The soluble protein fraction (supernatant) was collected and the protein content was quantified using the BCA assay (Pierce™ BCA Protein Assay Kit, Thermo Fisher Scientific). The lysate was stored at -80 °C until further use.
(§3) The P. falciparum lysate was thawed on ice and diluted to 0.8 mg/mL. The lysate was aliquoted, and each aliquot was incubated with either a vehicle control (DMSO), 34 (dissolved in DMSO), or varying concentrations of 31 (dissolved in DMSO) at 0.01 µM, 0.1 µM, 10 µM, 50 µM, and 100 µM. Subsequently, the samples were incubated at room temperature for 30 minutes using a rotating mixer. After distribution into a 96-well plate, the samples were treated with increasing concentrations of A.E.A. (v/v) ranging from 14% to 28% (14, 16, 18, 20, 22, 24, 26, and 28%). Following a 20-minute incubation at 37°C with shaking at 750 rpm, the samples were centrifuged at 4400 g for 35 minutes to remove precipitated proteins. The soluble fractions were then pooled in equal volumes into a single sample using the Bravo Automated Liquid Handling Platform. […]
(§4) The raw LFQ-DIA intensity values of biological replicates across all conditions were normalized to the median abundance using Excel. […] Dose-dependent curves were generated using normalized protein intensity values, expressed as a ratio to the vehicle control. […]

Experiment [4] addresses Phosphatidylinositol 4-kinase (W7K9N9) (Plasmodium falciparum, UniProt W7K9N9). Put plainly: iSPP profiling, P. falciparum lysate. The class given is binding. Conditions: 100 µM compound 34. As for the experimental part: as §2, §3, §4
The subject of experiment [5] is 3-hydroxyacyl-[acyl-carrier-protein] dehydratase (W7K0B9). Put plainly: iSPP profiling, P. falciparum lysate. The following applies: 100 µM compound 34. The class given is binding. Here is the method: as §2, §3, §4

Phosphatidylinositol 4-kinase (W7K9N9), sequence (W7K9N9 entry or part of it): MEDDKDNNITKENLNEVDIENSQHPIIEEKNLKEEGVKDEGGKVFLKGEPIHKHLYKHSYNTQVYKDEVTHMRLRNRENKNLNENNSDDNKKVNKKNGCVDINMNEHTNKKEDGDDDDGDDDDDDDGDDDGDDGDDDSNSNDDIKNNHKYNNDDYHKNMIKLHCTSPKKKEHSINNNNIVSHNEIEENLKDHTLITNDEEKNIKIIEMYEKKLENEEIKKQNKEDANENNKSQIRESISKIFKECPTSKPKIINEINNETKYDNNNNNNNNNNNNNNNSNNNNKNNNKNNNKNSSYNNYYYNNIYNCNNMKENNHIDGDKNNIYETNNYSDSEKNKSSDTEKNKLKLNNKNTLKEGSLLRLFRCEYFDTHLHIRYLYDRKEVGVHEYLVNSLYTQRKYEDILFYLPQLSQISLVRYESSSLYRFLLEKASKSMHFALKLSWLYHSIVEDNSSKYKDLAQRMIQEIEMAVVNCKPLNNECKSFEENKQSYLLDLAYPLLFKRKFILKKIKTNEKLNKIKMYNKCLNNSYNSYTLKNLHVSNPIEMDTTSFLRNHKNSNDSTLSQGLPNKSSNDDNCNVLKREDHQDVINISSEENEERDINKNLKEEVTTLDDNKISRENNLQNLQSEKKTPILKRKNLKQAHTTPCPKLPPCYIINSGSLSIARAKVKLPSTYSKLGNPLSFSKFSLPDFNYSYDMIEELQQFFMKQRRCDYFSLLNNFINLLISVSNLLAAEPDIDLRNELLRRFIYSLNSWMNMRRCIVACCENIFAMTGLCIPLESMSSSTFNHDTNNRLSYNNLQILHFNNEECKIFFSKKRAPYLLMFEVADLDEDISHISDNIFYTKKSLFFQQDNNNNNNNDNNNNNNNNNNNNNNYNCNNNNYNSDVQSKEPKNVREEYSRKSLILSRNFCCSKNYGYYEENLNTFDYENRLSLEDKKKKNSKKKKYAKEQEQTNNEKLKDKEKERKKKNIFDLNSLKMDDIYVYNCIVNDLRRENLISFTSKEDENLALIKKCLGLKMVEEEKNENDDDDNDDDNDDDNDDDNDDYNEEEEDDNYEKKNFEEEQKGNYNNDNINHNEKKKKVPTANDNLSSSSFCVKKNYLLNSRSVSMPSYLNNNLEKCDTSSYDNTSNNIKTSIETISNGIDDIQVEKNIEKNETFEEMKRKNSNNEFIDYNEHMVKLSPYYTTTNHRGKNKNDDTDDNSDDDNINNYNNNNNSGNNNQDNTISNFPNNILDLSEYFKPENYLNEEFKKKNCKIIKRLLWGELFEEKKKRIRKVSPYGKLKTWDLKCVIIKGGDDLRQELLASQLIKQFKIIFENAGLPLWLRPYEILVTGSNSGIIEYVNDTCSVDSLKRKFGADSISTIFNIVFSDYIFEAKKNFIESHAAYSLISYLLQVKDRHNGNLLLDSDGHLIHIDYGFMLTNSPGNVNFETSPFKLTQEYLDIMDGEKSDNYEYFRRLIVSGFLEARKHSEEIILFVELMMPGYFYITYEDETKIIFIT
Aquaglyceroporin (W7K5E1), sequence (Q8II36 whole entry, one chain of several): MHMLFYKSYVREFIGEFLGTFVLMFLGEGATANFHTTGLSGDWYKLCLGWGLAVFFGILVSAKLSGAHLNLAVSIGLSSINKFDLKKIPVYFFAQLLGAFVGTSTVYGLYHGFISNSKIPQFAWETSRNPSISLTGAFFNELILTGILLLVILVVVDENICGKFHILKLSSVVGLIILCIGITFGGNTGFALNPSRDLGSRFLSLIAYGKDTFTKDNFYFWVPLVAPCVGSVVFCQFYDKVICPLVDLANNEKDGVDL

As to `CN1CCN(Cc2ccc(O)c(NC(=O)c3cccc(Oc4cc(C(F)(F)F)ccn4)c3)c2)CC1` [Compound 31, N-(2-hydroxy-5-((4-methylpiperazin-1-yl)methyl)phenyl)-3-((4-(trifluoromethyl)pyridin-2-yl)oxy)benzamide], in experiment [1], the IC50 was found to be 2.4 ± 0.3 nM. Further, in experiment [2], the “IC50 fold shift relative to parental clone” value was determined as 20.2.

Regarding `O=C(Nc1cc(CN2CCOCC2)ccc1F)c1cccc(Oc2cc(C(F)(F)F)ccn2)c1` [Compound 34, N-(2-Fluoro-5-(morpholinomethyl)phenyl)-3-((4-(trifluoromethyl)pyridin-2-yl)oxy)benzamide], the log2FC in experiment [3] is 0.4199; in experiment [4] it was 0.5024; in experiment [5], 0.431.
